# In ChEMBL document CHEMBL1201862, “PubChem BioAssay data set” (2004):
# The source made the active and inactive calls.
# Assays:
# [1] = target: T1, Short transient receptor potential channel 4 (Mus musculus, UniProt Q9QUQ5); assay: mouse TRPC4 channel inhibitors, dose response, cell-based, HEK293 TRPC4/mu-opioid, Fluo-4 calcium (AID 434942); type: functional;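 note: potency of inhibitors blocking the TRPC4 calcium response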
# T1 sequence (Q9QUQ5 whole entry): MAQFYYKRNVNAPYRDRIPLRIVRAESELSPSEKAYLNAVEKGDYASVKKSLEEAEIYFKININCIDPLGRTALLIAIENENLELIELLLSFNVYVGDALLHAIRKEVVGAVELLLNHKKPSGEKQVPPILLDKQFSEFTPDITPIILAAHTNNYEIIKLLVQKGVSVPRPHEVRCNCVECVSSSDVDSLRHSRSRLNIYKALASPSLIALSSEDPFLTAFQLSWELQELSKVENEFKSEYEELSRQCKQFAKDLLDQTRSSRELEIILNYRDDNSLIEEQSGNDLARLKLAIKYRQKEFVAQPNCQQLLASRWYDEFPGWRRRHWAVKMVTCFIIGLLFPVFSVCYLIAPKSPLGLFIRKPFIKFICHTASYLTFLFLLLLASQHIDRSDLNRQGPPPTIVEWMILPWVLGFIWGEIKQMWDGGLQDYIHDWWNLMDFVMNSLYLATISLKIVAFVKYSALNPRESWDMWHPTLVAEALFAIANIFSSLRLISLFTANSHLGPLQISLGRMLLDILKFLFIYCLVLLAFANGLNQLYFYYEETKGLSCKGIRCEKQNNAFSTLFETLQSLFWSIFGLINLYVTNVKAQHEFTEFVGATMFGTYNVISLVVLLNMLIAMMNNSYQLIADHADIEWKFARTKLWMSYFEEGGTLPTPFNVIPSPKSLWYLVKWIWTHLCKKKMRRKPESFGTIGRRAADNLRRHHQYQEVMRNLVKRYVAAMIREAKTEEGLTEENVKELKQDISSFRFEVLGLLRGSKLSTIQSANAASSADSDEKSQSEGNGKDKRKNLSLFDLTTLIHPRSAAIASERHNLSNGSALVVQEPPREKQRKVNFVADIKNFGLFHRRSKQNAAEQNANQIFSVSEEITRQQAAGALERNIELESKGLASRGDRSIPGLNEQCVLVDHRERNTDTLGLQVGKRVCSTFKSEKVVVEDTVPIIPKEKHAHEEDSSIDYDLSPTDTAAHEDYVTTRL
# [2] = HEp-2 cell cytotoxicity, dose response, cytotoxicity control for RSV inhibitor project, HTS (AID 2410); type: functional; settings: human respiratory syncytial virus
# [3] = cytotoxicity toward NIH3T3 fibroblasts, dose response, counter-screen, cell-based, ATP luminescence, mouse fibroblasts (AID 2010); type: functional;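 note: cells exposed to compound for about 90 hours before reading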
# [4] = inhibitors of intracellular T. cruzi replication, confirmation, NIH3T3 host cells, beta-gal luminescence (AID 2044); type: functional, cell-based;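 note: intracellular parasites grown in NIH/3T3 mouse fibroblasts as host cells; luminescent beta-galactosidase reporter signal from transgenic T. cruzi replicating inside host cells; inhibitors lower the luminescence signal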
# [5] = target: T2, Mannose-6-phosphate isomerase (Homo sapiens, UniProt P34949); assay: human PMI inhibitors, high substrate, primary screen, biochemical, fluorescence intensity, high mannose 6-phosphate (AID 1220)
# T2 sequence (P34949 whole entry): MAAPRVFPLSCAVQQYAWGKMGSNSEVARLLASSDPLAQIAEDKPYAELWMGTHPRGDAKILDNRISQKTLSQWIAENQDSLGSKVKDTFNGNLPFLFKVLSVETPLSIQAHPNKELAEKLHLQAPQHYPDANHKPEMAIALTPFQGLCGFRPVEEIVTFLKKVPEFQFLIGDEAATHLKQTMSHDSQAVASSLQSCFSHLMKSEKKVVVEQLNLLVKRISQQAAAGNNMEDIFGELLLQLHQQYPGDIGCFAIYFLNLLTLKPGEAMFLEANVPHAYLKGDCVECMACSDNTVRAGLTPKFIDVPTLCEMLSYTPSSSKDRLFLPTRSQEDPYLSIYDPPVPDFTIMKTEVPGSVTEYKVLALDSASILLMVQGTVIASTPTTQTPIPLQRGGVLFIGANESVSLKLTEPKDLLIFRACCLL
# [6] = target: T1, Short transient receptor potential channel 4; assay: mouse TRPC4 channel activators, dose response, cell-based, HEK293 TRPC4/mu-opioid, Fluo-4 calcium (AID 434937); type: functional
# [7] = target: Glyceraldehyde-3-phosphate dehydrogenase (Homo sapiens, UniProt P04406)
# Chain of Glyceraldehyde-3-phosphate dehydrogenase (P04406 whole entry): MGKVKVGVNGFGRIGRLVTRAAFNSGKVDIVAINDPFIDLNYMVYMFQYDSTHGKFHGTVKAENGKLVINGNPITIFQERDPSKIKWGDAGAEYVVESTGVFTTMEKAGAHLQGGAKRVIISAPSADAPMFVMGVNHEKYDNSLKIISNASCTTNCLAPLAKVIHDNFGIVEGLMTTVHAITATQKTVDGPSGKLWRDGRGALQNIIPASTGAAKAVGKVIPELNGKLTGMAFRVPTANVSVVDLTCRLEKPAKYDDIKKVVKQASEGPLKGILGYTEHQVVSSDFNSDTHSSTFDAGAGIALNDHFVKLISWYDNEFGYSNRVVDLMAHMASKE
# [8] = target: Cytochrome P450 2C19 (Homo sapiens, UniProt P33261); assay: Cytochrome panel assay with activity outcomes. Panel member name: p450-cyp2c19 Compounds with AC50 equal or less than 10 uM are considered active; type: functional; settings: read-out: AC50
# Chain of Cytochrome P450 2C19 (P33261 whole entry): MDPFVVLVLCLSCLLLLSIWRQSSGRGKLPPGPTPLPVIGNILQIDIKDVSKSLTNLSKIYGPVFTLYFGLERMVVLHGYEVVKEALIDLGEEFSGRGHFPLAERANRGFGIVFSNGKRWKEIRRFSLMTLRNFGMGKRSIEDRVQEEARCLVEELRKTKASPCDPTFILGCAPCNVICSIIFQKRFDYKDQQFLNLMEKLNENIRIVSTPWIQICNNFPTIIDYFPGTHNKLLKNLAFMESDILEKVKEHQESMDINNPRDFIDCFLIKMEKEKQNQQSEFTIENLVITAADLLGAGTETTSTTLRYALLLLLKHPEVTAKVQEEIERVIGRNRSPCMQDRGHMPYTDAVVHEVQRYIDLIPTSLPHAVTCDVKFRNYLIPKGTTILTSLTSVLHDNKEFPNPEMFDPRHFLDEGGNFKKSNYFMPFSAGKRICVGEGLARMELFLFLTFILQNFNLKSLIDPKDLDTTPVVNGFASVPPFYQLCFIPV
# [9] = Luminescence Cell-Based Dose Confirmation HTS to Identify Inhibitors of Platelet Dense Granule Release. [Related pubchem assays: 1663 (Primary HTS), 1678 (Summary of Project)]; type: functional
# [10] = target: Cytochrome P450 2C9 (Homo sapiens, UniProt P11712)
# Chain of Cytochrome P450 2C9 (P11712 whole entry): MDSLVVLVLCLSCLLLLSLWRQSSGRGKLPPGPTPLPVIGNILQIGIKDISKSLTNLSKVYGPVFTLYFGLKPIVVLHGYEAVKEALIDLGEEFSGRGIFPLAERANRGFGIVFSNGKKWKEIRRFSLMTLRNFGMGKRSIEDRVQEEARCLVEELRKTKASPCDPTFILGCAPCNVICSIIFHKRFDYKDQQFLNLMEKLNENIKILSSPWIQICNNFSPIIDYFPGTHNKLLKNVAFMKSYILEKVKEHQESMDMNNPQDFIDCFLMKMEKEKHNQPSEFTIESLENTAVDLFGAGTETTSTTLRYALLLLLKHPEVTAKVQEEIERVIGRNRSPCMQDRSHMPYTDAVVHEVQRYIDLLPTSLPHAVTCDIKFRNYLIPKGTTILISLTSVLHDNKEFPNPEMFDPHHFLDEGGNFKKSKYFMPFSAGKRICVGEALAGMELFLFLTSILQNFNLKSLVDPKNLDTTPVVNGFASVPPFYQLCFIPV
# [11] = target: Luciferin 4-monooxygenase (Photinus pyralis, UniProt P08659); assay: firefly luciferase enzyme inhibitors, dose response, biochemical, luminescence (AID 1891)
# Chain of Luciferin 4-monooxygenase (P08659 whole entry): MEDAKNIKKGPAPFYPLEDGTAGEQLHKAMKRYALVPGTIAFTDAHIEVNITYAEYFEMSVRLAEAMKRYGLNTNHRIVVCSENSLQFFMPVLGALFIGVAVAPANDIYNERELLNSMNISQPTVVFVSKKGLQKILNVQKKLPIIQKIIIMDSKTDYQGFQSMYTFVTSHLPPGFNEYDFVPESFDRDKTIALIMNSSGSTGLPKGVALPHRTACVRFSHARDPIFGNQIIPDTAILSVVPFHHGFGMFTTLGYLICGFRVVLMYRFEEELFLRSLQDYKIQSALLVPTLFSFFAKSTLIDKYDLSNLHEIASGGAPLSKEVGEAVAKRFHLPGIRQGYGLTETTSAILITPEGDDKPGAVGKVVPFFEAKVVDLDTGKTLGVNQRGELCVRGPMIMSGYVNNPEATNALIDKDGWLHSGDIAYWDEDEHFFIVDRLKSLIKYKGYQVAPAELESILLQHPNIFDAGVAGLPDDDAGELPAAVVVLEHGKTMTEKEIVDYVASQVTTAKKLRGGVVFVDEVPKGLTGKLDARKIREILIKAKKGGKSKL
# [12] = target: T3, Cytochrome P450 1A2 (Homo sapiens, UniProt P05177);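 note: PubChem cytochrome P450 panel assay, CYP1A2 panel member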
# T3 sequence (P05177 whole entry): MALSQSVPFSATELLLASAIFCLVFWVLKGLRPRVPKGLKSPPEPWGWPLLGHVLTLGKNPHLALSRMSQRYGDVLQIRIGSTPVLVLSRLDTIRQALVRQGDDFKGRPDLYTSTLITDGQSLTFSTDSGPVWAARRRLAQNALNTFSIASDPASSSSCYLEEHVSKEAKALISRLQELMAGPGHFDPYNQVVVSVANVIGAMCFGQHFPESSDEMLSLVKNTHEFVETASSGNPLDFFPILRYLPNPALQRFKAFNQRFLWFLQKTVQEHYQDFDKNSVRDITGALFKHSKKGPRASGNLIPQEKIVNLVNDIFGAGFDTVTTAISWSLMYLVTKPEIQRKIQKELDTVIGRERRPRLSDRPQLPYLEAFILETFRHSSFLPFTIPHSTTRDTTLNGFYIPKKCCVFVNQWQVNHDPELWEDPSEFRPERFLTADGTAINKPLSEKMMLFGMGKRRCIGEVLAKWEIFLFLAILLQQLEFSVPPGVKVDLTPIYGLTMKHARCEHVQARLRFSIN
# [13] = target: T4, Heat shock factor protein 1 (Mus musculus, UniProt P38532); assay: HSF1 potentiators in luciferase reporter cells, confirmation, cell-based, NIH3T3, luminescence, dose retest (AID 435004); type: functional;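 note: stress induced by proteasome inhibitor MG132 added 30 min after compound; luciferase reporter driven by HSF1 response element in NIH3T3 cells; actives raise luminescence as potentiators of the MG132 stress response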
# T4 sequence (P38532 whole entry): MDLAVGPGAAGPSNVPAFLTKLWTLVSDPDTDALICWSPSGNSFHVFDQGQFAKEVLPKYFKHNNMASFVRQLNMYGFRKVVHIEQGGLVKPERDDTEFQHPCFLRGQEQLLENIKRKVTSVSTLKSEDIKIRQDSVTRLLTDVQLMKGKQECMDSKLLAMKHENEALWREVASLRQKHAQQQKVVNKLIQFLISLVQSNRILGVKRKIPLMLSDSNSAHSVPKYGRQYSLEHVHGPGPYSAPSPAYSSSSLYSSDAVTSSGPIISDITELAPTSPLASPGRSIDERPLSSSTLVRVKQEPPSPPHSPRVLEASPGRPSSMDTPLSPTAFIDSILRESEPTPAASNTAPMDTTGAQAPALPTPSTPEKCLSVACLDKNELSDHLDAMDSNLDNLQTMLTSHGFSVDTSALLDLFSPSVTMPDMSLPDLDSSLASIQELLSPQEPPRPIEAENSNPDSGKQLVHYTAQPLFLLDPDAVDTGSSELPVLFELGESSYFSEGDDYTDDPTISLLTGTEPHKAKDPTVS
# [14] = target: T5, Corticotropin-releasing factor receptor 2/Corticotropin-releasing factor-binding protein (Homo sapiens, UniProt P24387+Q13324); assay: activators of CRF receptor 2 with binding protein – uHTS hits, confirmation (AID 602473); type: functional; settings: read-out: EC50_Mean
# T5 sequence (Q13324 whole entry): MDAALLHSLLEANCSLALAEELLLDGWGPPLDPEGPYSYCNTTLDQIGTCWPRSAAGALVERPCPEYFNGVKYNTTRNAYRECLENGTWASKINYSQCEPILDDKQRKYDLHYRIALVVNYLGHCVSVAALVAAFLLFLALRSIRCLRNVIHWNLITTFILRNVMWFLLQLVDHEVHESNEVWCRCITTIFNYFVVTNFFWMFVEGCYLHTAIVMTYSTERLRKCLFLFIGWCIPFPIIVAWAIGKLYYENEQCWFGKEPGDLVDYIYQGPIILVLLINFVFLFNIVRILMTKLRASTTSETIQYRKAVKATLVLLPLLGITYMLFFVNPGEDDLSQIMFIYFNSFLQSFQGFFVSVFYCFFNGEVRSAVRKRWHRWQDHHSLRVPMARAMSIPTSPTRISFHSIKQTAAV
# T5 sequence (P24387 whole entry): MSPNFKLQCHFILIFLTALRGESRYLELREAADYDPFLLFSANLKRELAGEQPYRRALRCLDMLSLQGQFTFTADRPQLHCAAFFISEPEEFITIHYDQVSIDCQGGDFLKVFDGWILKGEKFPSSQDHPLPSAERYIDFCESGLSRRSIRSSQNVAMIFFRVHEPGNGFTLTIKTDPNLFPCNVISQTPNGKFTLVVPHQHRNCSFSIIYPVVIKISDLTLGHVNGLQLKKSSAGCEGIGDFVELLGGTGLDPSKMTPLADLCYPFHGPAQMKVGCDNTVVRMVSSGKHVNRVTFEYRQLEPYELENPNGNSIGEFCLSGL
# [15] = inhibitors of clade B AD8 Env fusion, dose response, cell-based, cherry-pick (AID 652062); type: functional;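 note: luciferase signal from cell-cell fusion driven by HIV-1 clade B AD8 Env; potency is for inhibitors of fusion seen as a drop in luminescence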
# [16] = target: Paired box protein Pax-8 (Homo sapiens, UniProt Q06710); assay: inhibitors of PAX8-driven TPO luciferase reporter, dose response, RMG-I cells, cherry-pick (AID 687027); type: functional, cell-based;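 note: luciferase reporter driven by Pax8 target thyroperoxidase promoter measured by SteadyGlo luminescence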
# Chain of Paired box protein Pax-8 (Q06710 whole entry): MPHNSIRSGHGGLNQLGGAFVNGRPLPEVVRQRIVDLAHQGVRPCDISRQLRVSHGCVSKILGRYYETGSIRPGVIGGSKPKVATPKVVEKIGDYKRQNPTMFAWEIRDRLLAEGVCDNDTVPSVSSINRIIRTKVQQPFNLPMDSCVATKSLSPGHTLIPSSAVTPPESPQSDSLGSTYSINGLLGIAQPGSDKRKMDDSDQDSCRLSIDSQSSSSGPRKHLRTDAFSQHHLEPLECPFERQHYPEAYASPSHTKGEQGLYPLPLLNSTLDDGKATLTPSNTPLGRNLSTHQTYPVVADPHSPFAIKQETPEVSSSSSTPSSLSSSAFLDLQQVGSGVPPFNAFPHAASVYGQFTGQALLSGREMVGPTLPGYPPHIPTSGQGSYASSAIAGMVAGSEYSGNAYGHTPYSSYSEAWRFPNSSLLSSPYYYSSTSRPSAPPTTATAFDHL
# [17] = target: Heat shock protein HSP 90-alpha (Homo sapiens, UniProt P07900); type: functional, organism-based
# [18] = tested on: Streptococcus sp. 'group A'; assay: growth inhibition of control SK(-) GAS strain, dose response, counter-screen for streptokinase expression inhibitor project, luminescence, kanamycin, BacTiterGlo, confirmation (AID 1900); type: functional, organism-based
# [19] = tested on: Streptococcus; assay: Group A Streptococcus viability loss, dose response, counter-screen for streptokinase expression inhibitor project, luminescence, BacTiterGlo (AID 1915); type: functional, organism-based;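 note: potency for reduction of bacterial viability or growth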
smiles,measurement,setting,value
Cc1nc(Cl)c(Cl)n1CCOc1ccccc1,EC50,[1],5.31 µM (active)
same,CC50,[2],20.9 µM (active)
Cc1ccc(C(CNS(=O)(=O)c2ccc([N+](=O)[O-])cc2)N2CCN(C)CC2)cc1 (stereo unspecified),EC50,[3],> 60 µM (not active)
same,EC50,[1],0.0093 µM (active)
same,EC50,[4],1.65 µM (active)
COc1ccc(N(C)C(=O)Nc2ccc3nsnc3c2)cc1,IC50,[5],> 50 µM (not active)
CCOc1ccc(CN2CCNC(=O)C2CC(=O)NCCc2ccccn2)cc1 (stereo unspecified),EC50,[6],6.68 µM (active)
O=C1C(Cl)=C(N2CCN(c3ncccn3)CC2)C(=O)N1c1ccc(C(F)(F)F)cc1,IC50,[7],> 50 µM (inconclusive)
O=C1C(Cl)=C(N2CCN(c3ccccc3)CC2)C(=O)N1c1cccc(C(F)(F)F)c1,IC50,[7],> 50 µM (inconclusive)
Cc1cc(OCCn2ccnc2)cc(C)c1Cl,EC50,[6],3.76 µM (active)
CCC(C)C1=CC(=Nc2c(C)n(C)n(-c3ccccc3)c2=O)C=C(C(C)CC)C1=O (stereo unspecified),IC50,[5],> 50 µM (not active)
Cc1cc(C=C2C(=O)N(C)C(=S)N(C)C2=O)c(C)n1-c1cccnc1,IC50,[5],> 50 µM (not active)
Cc1cccc(N2C(=O)C(Cl)=C(N3CCN(c4ccccc4)CC3)C2=O)c1,IC50,[7],> 50 µM (inconclusive)
O=C(NCCCN1CCN(c2cccc(Cl)c2)CC1)C1CCC(=O)N1Cc1ccccc1Cl (stereo unspecified),EC50,[1],2.99 µM (active)
same,AC50,[8],10 µM (inconclusive)
same,EC50,[9],> 112 µM (not active)
same,AC50,[10],15.8 µM (inconclusive)
same,EC50,[11],> 112 µM (not active)
same,AC50,[12],0.00631 µM (inconclusive)
Cc1cc(C)c(C)c(OCCCN(C)C)c1,EC50,[6],0.168 µM (active)
Oc1cc(-c2ccccc2)c2ccccc2c1,IC50,[5],14.4 µM (active)
same,EC50,[13],40.1 µM (active)
NS(=O)(=O)c1ccc(/N=C/C2=C(O)c3ccccc3C2=O)cc1,IC50,[7],> 100 µM (not active)
CC1CC(C)(C)N(C(=O)CN2C(=O)c3ccccc3C2=O)c2ccccc21 (stereo unspecified),EC50,[6],5.96 µM (active)
same,EC50,[1],4.22 µM (active)
same,EC50,[14],6.44 µM (active)
CC(C)(C)[C@H]1C=C(C(=O)NCc2ccccc2)O[C@@H](OCc2ccc(CO)cc2)C1,EC50,[6],9.44 µM (active)
c1ccc(Cn2nnnc2C(c2cccnc2)N2CCN(C3CCCCC3)CC2)cc1 (stereo unspecified),EC50,[6],1.68 µM (active)
CC1(C)CC(=O)c2cc(C(=O)NCc3ccco3)c(=O)n(-c3ccc(Cl)cc3)c2C1,EC50,[6],6.68 µM (active)
Cc1ccc(S(=O)(=O)Nc2cccc(C(=O)NCC(c3ccccc3)N(C)C)c2)cc1F (stereo unspecified),EC50,[6],5.31 µM (active)
same,EC50,[1],0.267 µM (active)
CC1CCCN(C(=O)c2ccc(S(=O)(=O)N3CCC(c4nc5ccccc5s4)CC3)cc2)C1 (stereo unspecified),AC50,[15],5.85 µM (active)
COc1ccc(S(=O)(=O)N(C)C[C@H]2Oc3ccc(NC(=O)Nc4ccc(C(F)(F)F)cc4)cc3CC(=O)N([C@H](C)CO)C[C@@H]2C)cc1,AC50,[16],11.9 µM (active)
COc1ccc(NC(=O)Nc2ccc3c(c2)CC(=O)N([C@@H](C)CO)C[C@@H](C)[C@@H](CN(C)Cc2ccc(Oc4ccccc4)cc2)O3)cc1,AC50,[16],25.3 µM (active)
C[C@@H]1CCCCO[C@@H](CN(C)C(=O)Nc2ccccc2)[C@H](C)CN([C@H](C)CO)C(=O)c2cc(NC(=O)Nc3ccc(C(F)(F)F)cc3)ccc2O1,AC50,[16],3.07 µM (active)
O=C(O)c1ccc(N/N=C/c2ccc(-c3cccc(Cl)c3)o2)cc1,AC50,[17],8 µM (active)
same,EC50,[1],4.73 µM (active)
same,EC50,[18],3.86 µM (active)
same,EC50,[19],10.7 µM (active)
O=C(NCCO)c1cc(-c2cc(F)c(F)cc2F)n[nH]1,IC50,[7],> 10 µM (inconclusive)
COc1ccc(F)cc1S(=O)(=O)Nc1cccnc1,IC50,[7],> 100 µM (not active)
